What was measured:
[1] = Terminal half life in Beagle dog plasma at 0.10 mg/kg, iv by cassette assay; type: ADME, organism-based, Canis lupus familiaris; set-up: dose 0.1 mg/kg, route intravenous; conditions: 0.1 mg/kg, read-out: beta t1/2 (converted)
[2] = target: Beta-1 adrenergic receptor (Homo sapiens, UniProt P08588)
Description: Agonist activity at human recombinant beta-1 adrenergic receptor expressed in CHO cells assessed as cAMP accumulation by enzyme immunoassay

[3] = Total clearance in Beagle dog at 0.10 mg/kg, iv by cassette assay; type: ADME, organism-based, Canis lupus familiaris; set-up: dose 0.1 mg/kg, route intravenous; conditions: in vivo, 0.1 mg/kg
[4] = Bioavailability in Beagle dog at 0.10 mg/kg, po and iv by cassette assay; type: ADME, organism-based, Canis lupus familiaris; conditions: in vivo, 0.1 mg/kg
[5] = target: Beta-3 adrenergic receptor (Homo sapiens, UniProt P13945); test: Agonist activity at human recombinant beta3 adrenergic receptor expressed in CHO cells assessed as cAMP accumulation by enzyme immunoassay; type: functional, cell-based
[6] = Cmax in Beagle dog at 0.10 mg/kg, po by cassette assay; type: ADME, organism-based, Canis lupus familiaris; set-up: dose 0.1 mg/kg, route oral; conditions: in vivo, 0.1 mg/kg
[7] = AUC (0 to 24 hrs) in Beagle dog at 0.10 mg/kg, po by cassette assay; type: ADME, organism-based, Canis lupus familiaris; set-up: time < 24 hr, dose 0.1 mg/kg, route oral; conditions: plasma, 0.1 mg/kg
[8] = target: Beta-2 adrenergic receptor (Homo sapiens, UniProt P07550)
Description: Agonist activity at human recombinant beta2 adrenergic receptor expressed in CHO cells assessed as cAMP accumulation by enzyme immunoassay

[9] = Terminal half life in rat plasma at 0.32 mg/kg, iv by cassette assay; type: ADME, organism-based; set-up: dose 0.32 mg/kg, route intravenous; conditions: read-out: beta t1/2 (converted)
[10] = Total clearance in rat at 0.32 mg/kg, iv by cassette assay; type: ADME, organism-based; set-up: dose 0.32 mg/kg, route intravenous; conditions: in vivo
[11] = Bioavailability in rat at 0.32 mg/kg, po and iv by cassette assay; type: ADME, organism-based; conditions: in vivo
[12] = Bioavailability in monkey at 0.32 mg/kg, po and iv by cassette assay; type: ADME, organism-based, Macaca mulatta; conditions: rhesus monkey, in vivo
Canis familiaris [13] = test: Inhibition of carbachol-induced increase in intravesical pressure in intraduodenally dosed Beagle dog OAB model for 30 mins measured for 180 mins; type: functional, organism-based; conditions: Canis lupus familiaris
[14] = Total clearance in monkey at 0.32 mg/kg, iv by cassette assay; type: ADME, organism-based, Macaca mulatta; set-up: dose 0.32 mg/kg, route intravenous; conditions: rhesus monkey, in vivo
[15] = Cmax in rat at 0.32 mg/kg, po by cassette assay; type: ADME, organism-based; set-up: dose 0.32 mg/kg, route oral; conditions: in vivo
[16] = AUC (0 to 24 hrs) in rat at 0.32 mg/kg, po by cassette assay; type: ADME, organism-based; set-up: time < 24 hr, dose 0.32 mg/kg, route oral; conditions: plasma
[17] = Inhibition of KCl-induced tonic contraction in Beagle dog detrusor muscle strips preincubated for 15 mins before KCl challenge; type: functional; conditions: Canis lupus familiaris, read-out: EC50
[18] = Protein binding in Beagle dog serum; type: ADME, cell-free, Canis lupus familiaris; conditions: read-out: PPB (converted)
[19] = target: Beta-3 adrenergic receptor (Canis lupus familiaris, UniProt O02662); test: Agonist activity at dog recombinant beta3 adrenergic receptor expressed in CHO cells assessed as cAMP accumulation by enzyme immunoassay; type: functional, cell-based
Canis familiaris [20] = test: Inhibition of carbachol-induced increase in intravesical pressure in Beagle dog OAB model at 10 ug/kg, iv for 30 mins measured for 180 mins; type: functional; conditions: Canis lupus familiaris
Canis familiaris [21] = test: Ratio of Cmax for drug to Cmax for (R)-4'-(2-(2-(3-chlorophenyl)-2-hydroxyethylamino)ethyl)-3-isopropoxybiphenyl-4-carboxylic acid in beagle dog at 0.1 or 0.2 mg/kg, po by cassette assay; type: ADME, organism-based, Canis lupus familiaris; set-up: dose 0.2 mg/kg, route oral; conditions: in vivo

Sequence of Beta-3 adrenergic receptor (Canis lupus familiaris, UniProt O02662) (O02662 whole entry): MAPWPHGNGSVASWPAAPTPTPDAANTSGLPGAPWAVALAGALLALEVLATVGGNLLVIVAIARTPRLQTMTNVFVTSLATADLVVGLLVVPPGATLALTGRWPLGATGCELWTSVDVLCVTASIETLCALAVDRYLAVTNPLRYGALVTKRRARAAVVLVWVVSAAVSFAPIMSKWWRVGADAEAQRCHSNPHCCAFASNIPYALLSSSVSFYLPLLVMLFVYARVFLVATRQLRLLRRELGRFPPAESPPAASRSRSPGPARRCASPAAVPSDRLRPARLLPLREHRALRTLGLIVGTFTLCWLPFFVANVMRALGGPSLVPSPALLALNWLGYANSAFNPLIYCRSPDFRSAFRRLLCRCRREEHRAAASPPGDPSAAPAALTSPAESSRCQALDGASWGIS
Sequence of Beta-3 adrenergic receptor (Homo sapiens, UniProt P13945) (P13945 whole entry): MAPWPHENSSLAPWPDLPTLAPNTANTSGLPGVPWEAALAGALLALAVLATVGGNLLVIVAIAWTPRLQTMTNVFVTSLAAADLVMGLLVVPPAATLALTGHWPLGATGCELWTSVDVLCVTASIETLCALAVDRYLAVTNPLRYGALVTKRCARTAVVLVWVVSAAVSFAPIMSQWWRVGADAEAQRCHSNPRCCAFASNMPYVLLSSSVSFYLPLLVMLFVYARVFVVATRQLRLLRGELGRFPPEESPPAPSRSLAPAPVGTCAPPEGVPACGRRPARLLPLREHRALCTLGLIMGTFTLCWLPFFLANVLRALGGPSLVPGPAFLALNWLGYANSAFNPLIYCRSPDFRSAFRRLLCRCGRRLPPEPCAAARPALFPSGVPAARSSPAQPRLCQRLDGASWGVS
Sequence of Beta-1 adrenergic receptor (P08588 whole entry): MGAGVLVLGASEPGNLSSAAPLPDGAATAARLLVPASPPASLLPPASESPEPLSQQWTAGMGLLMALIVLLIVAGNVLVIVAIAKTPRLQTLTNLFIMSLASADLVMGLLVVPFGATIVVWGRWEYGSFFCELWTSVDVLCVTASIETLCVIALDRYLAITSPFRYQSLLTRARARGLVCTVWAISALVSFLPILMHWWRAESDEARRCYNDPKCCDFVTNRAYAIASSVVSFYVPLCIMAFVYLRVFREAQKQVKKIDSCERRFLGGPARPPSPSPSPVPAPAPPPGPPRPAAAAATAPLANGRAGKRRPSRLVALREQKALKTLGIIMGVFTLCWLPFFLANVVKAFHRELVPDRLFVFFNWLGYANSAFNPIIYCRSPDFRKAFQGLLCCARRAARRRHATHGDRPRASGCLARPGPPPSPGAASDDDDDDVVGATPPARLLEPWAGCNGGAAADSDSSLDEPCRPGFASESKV
Sequence of Beta-2 adrenergic receptor (P07550 whole entry): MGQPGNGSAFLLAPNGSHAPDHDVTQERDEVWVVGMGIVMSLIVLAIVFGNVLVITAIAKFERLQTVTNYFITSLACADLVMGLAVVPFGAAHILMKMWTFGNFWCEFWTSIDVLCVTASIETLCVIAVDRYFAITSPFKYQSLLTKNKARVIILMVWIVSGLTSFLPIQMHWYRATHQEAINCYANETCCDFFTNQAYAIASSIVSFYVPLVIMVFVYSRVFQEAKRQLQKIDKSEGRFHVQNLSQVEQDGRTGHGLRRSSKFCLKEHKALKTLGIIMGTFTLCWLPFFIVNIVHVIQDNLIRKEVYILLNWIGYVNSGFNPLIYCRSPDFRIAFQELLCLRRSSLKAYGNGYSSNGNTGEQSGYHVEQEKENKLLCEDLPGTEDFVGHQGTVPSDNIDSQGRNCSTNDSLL

half-life [1] | EC50 [2] | clearance [3] | bioavailability [4] | EC50 ([5]; read-out: EC50) | Cmax [6] | AUC(0-t) at 24 h [7] | SMILES | further results
2.7 h | 320 nM | 16.4 mL/min/kg | 12% | 0.2 nM | 1.9 ng/mL | 10.4 ng·h/mL | CC(C)Nc1cc(-c2ccc(CCNC[C@H](O)c3cccnc3)cc2)ccc1C(=O)NS(C)(=O)=O.Cl.Cl.Cl | –
5.7 h | > 1000 nM | 5 mL/min/kg | 68% | 0.5 nM | 17.5 ng/mL | 212 ng·h/mL | CS(=O)(=O)NC(=O)c1ccc(-c2ccc(CCNC[C@H](O)c3ccc(N)cc3)cc2)cc1OC1CCCCC1.Cl.Cl | EC50 ([5]; read-out: pEC50 (converted)): 0.0631 nM
4.7 h | > 1000 nM | 4 mL/min/kg | 50% | 0.41 nM | 17.1 ng/mL | 211 ng·h/mL | CS(=O)(=O)NC(=O)c1ccc(-c2ccc(CCNC[C@H](O)c3ccccc3)cc2)cc1C1CCCC1.Cl | –
– | > 1000 nM | – | – | 0.33 nM | 13.1 ng/mL | 106 ng·h/mL | CS(=O)(=O)NC(=O)c1ccc(-c2ccc(CCNC[C@H](O)c3ccccc3)cc2)cc1C1CCCCC1.Cl | –
1.4 h | > 1000 nM | 21.8 mL/min/kg | 18% | 0.29 nM | 1.4 ng/mL | 13.4 ng·h/mL | CS(=O)(=O)NC(=O)c1ccc(-c2ccc(CCNC[C@H](O)c3cccnc3)cc2)cc1C1CCCC1.Cl.Cl | –
3.5 h | > 1000 nM | 5.3 mL/min/kg | 67% | 0.46 nM | 24.9 ng/mL | 210 ng·h/mL | CC(C)Cc1cc(-c2ccc(CCNC[C@H](O)c3ccccc3)cc2)ccc1C(=O)NS(C)(=O)=O.Cl | half-life [9]: 2.5 h; inhibition in vivo at 0.01 mg/kg (Canis familiaris [20]): > 70%; EC50 [17]: 2.6 nM; clearance [10]: 35.2 mL/min/kg; bioavailability [11]: 40%; fraction unbound [18]: 0.08; EC50 [8]: > 10000 nM; EC50 (Canis familiaris [13]): 14.2 nM; ED50 (Canis familiaris [13]): 0.0247 mg/kg; Cmax [15]: 6.4 ng/mL; AUC(0-t) at 24 h [16]: 64.8 ng·h/mL; EC50 ([19]; read-out: EC50): 0.88 nM
– | > 1000 nM | – | – | 5.5 nM | – | – | CC(C)Oc1cc(-c2ccc(CCNC[C@H](O)c3ccc(N)cc3)cc2)ccc1C(=O)NS(C)(=O)=O | EC50 ([5]; read-out: pEC50 (converted)): 0.2 nM
– | 160 nM | – | – | 2.8 nM | – | – | CCCCCOc1cc(-c2ccc(CCNC[C@H](O)c3ccccc3)cc2)ccc1C(=O)NS(C)(=O)=O | –
12 h | > 1000 nM | 2.3 mL/min/kg | 75% | 3.1 nM | 33.4 ng/mL | 562 ng·h/mL | CC(C)Oc1cc(-c2ccc(CCNC[C@H](O)c3ccccc3)cc2)ccc1C(=O)NS(C)(=O)=O.Cl | inhibition in vivo at 0.01 mg/kg (Canis familiaris [20]): 51%; EC50 ([5]; read-out: pEC50 (converted)): 0.631 nM; EC50 ([19]; read-out: EC50): 4.9 nM; EC50 ([19]; read-out: pEC50 (converted)): 1 nM
4.4 h | > 1000 nM | 2.2 mL/min/kg | 98% | 0.6 nM | 70.3 ng/mL | 756 ng·h/mL | CS(=O)(=O)NC(=O)c1ccc(-c2ccc(CCNC[C@H](O)c3ccccc3)cc2)cc1Oc1ccccc1.Cl | inhibition in vivo at 0.01 mg/kg (Canis familiaris [20]): 35%; EC50 ([19]; read-out: EC50): 2.9 nM

Further lines, the compound ahead of its results:

SMILES | half-life [1] | EC50 [2] | clearance [3] | bioavailability [4] | EC50 ([5]; read-out: EC50) | Cmax [6] | AUC(0-t) at 24 h [7] | further results
CS(=O)(=O)NC(=O)c1ccc(-c2ccc(CCNC[C@H](O)c3cccnc3)cc2)cc1NC1CCCCC1.Cl.Cl.Cl | 1.3 h | > 1000 nM | 12.4 mL/min/kg | 21% | 0.062 nM | 10.3 ng/mL | 28.4 ng·h/mL | EC50 [8]: > 10000 nM
CS(=O)(=O)NC(=O)c1ccc(-c2ccc(CCNC[C@H](O)c3cnccc3N)cc2)cc1OC1CCCCC1.Cl.Cl | 6.7 h | – | 34.9 mL/min/kg | 54% | – | 2.5 ng/mL | 26.7 ng·h/mL | half-life [9]: 1.7 h; clearance [10]: 36.4 mL/min/kg; bioavailability [11]: 5%; bioavailability [12]: 0%; ED50 (Canis familiaris [13]): 0.0143 mg/kg; clearance [14]: 52 mL/min/kg; Cmax [15]: 3.3 ng/mL; AUC(0-t) at 24 h [16]: 6.3 ng·h/mL
CC(C)Cc1cc(-c2ccc(CCNC[C@H](O)c3ccccc3)cc2)ccc1C(=O)O | – | – | – | – | – | – | – | EC50 [17]: 8.7 nM; fraction unbound [18]: 0.14; EC50 (Canis familiaris [13]): 18.7 nM; ED50 (Canis familiaris [13]): 0.0459 mg/kg; EC50 ([19]; read-out: EC50): 2.2 nM
CC(C)Sc1cc(-c2ccc(CCNC[C@H](O)c3cccnc3)cc2)ccc1C(=O)NS(C)(=O)=O.Cl.Cl | 4.3 h | 240 nM | 5.4 mL/min/kg | 14% | 0.19 nM | 5.3 ng/mL | 50.9 ng·h/mL | –
CC(C)Oc1cc(-c2ccc(CCNC[C@H](O)c3ccccc3)cc2)ccc1C(=O)O | – | – | – | – | – | – | – | inhibition in vivo at 0.01 mg/kg (Canis familiaris [20]): > 70%; EC50 [17]: 6.8 nM
CS(=O)(=O)NC(=O)c1ccc(-c2ccc(CCNC[C@H](O)c3ccccc3)cc2)cc1OC1CCCC1 | – | 750 nM | – | – | 0.62 nM | – | – | –
COc1cc(-c2ccc(CCNC[C@H](O)c3ccccc3)cc2)ccc1C(=O)NS(C)(=O)=O | – | 730 nM | – | – | 18 nM | – | – | –
CCCSc1cc(-c2ccc(CCNC[C@H](O)c3ccccc3)cc2)ccc1C(=O)NS(C)(=O)=O.Cl | – | > 1000 nM | – | – | 1.4 nM | 8.1 ng/mL | 91.9 ng·h/mL | –
CS(=O)(=O)NC(=O)c1ccc(-c2ccc(CCNC[C@H](O)c3ccccc3)cc2)cc1NC1CCCCC1.Cl.Cl | 3.9 h | 900 nM | 9.9 mL/min/kg | 22% | 0.14 nM | 3.2 ng/mL | 33.5 ng·h/mL | –
CC(C)Sc1cc(-c2ccc(CCNC[C@H](O)c3ccccc3)cc2)ccc1C(=O)O | – | – | – | – | – | – | – | EC50 [17]: 11 nM; EC50 (Canis familiaris [13]): 11.2 nM; ED50 (Canis familiaris [13]): 0.047 mg/kg; EC50 ([19]; read-out: EC50): 1.2 nM
CS(=O)(=O)NC(=O)c1ccc(-c2ccc(CCNC[C@H](O)c3ccccc3)cc2)cc1SC1CCCCC1.Cl | – | 840 nM | – | – | 0.5 nM | 8 ng/mL | 56.3 ng·h/mL | –
CC(C)Cc1cc(-c2ccc(CCNC[C@H](O)c3cccnc3)cc2)ccc1C(=O)O | – | – | – | – | – | – | – | Ratio (Canis familiaris [21]): 0.36
CS(=O)(=O)NC(=O)c1ccc(-c2ccc(CCNC[C@H](O)c3ccccc3)cc2)cc1OC1CCCCCC1 | – | 220 nM | – | – | 0.38 nM | – | – | –
CC(C)Oc1cc(-c2ccc(CCNC[C@H](O)c3cccnc3)cc2)ccc1C(=O)NS(C)(=O)=O | – | 130 nM | – | – | 1 nM | – | – | –
CC(C)Cc1cc(-c2ccc(CCNC[C@H](O)c3cccnc3)cc2)ccc1C(=O)NS(C)(=O)=O.Cl.Cl | 0.6 h | 490 nM | 35.9 mL/min/kg | 21% | 0.32 nM | 2.6 ng/mL | 12 ng·h/mL | –
CS(=O)(=O)NC(=O)c1ccc(-c2ccc(CCNC[C@H](O)c3ccccc3)cc2)cc1CC1CCCCC1.Cl | 3.9 h | 370 nM | 4.9 mL/min/kg | 70% | 0.54 nM | 27.9 ng/mL | 230 ng·h/mL | –

— ChEMBL document CHEMBL1138480, “Discovery of highly potent and selective biphenylacylsulfonamide-based beta3-adrenergic receptor agonists and evaluation of physical properties as potential overactive bladder therapies: part 5” (J Med Chem, 2009)
